Test results reported in patent publication US9487462B2, “Inhibitors of matrix metalloproteinases” (PharmaHungary 2000 Kft., priority 2010, dated 2016).

How the values were obtained:
[1] = system: neonatal rat cardiac myocytes; assay: Cytoprotective effect in cardiac myocytes subjected to hypoxia and reoxygenation; format: cell-based
Procedure, shortened: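 Day-3 neonatal rat cardiomyocytes subjected to 4 h simulated ischemia (95% N2/5% CO2, hypoxic solution, 37 °C) or normoxia, then reoxygenation. MMP inhibitors at EC5, EC10, EC20 and EC50 (DMSO vehicle; ilomastat 0.5 µM control) present throughout; viability by calcein-AM relative to digitonin/propidium iodide total cell count.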

MMP-2 = MMP-2 (Rattus norvegicus (Rat), UniProt P33436); assay: In vitro zymography assay (gelatin), MMP-2; format: biochemical
Procedure: MMP-2 and MMP-9 enzymes were isolated from rat hearts and from rat spleen while human, recombinant MMP-1 and MMP-13 enzymes used were commercial. MMP-2, -9, -13 enzymes were separated by electrophoresis during non-reducing conditions on 8% SDS-polyacrylamide gels copolymerized with 2 mg/ml gelatin from porcine skin (Sigma Aldrich) while MMP-1 was separated under the same conditions on 8% SDS-polyacrylamide gels copolymerized with 2 mg/ml casein (Sigma Aldrich). […] In case of MMP-13 p-aminophenylmercuric acetate (APMA) was used for enzyme activation at 37° C. for 30 min. After electrophoresis, gels were washed in 2.5% Triton-X 100 with agitation and then incubated for 20 hrs at 37° C. in enzyme incubation buffer (50 mM Tris-HCl, pH 7.5, containing 5 mM CaCl2, 200 mM NaCl) with or without MMP inhibitor. Zymographic gels were stained in Coomassie Brilliant Blue R-250 and de-stained. Gelatin and casein zymograms were scanned. MMP activity is detected as a white zone on a blue background and the clear bands in the gel can be quantified by densitometry. The obtained density values were measured and % inhibition values calculated (Kupai et al., 2010). The table below summarizes the prescreen inhibition values determined for different MMP inhibitors on MMP1, -2, -9, -13.

Sequence of MMP-2 (P33436 110-662): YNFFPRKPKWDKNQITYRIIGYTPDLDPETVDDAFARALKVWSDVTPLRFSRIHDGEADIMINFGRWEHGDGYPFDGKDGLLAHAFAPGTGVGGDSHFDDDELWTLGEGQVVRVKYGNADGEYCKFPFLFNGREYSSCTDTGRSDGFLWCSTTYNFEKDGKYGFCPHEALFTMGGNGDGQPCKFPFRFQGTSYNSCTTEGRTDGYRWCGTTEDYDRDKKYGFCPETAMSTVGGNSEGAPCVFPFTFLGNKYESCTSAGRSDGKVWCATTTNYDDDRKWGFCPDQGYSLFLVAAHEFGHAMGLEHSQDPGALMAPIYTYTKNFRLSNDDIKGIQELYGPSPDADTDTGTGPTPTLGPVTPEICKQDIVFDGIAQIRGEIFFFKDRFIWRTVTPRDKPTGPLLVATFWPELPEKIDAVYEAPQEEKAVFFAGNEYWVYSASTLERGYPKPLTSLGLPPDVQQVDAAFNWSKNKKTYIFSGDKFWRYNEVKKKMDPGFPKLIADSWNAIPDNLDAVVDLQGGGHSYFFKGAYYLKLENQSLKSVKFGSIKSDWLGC

## O=C(O)c1csc(CN(Cc2ccc(F)cc2)Cc2ccc(OCc3cccnc3)cc2)n1 [Compound 1, 2-({[(4-Fluorophenyl)methyl]({[4-(pyridin-3-ylmethoxy)phenyl]methyl})amino}methyl)-1,3-thiazole-4-carboxylic acid]
[1]; normoxia, EC5 concentration 2.6 microM
  Cytoprotective effect, % cell survival as compared to vehicle DMSO: 120 ± 2 %
[1]; normoxia, EC10 concentration 6.3 microM
  Cytoprotective effect, % cell survival as compared to vehicle DMSO: 99 ± 2%
[1]; normoxia, EC20 concentration 10.4 microM
  Cytoprotective effect, % cell survival as compared to vehicle DMSO: 94 ± 2%
[1]; normoxia, EC50 concentration 17.7 microM
  Cytoprotective effect, % cell survival as compared to vehicle DMSO: 86 ± 2 %
[1]; simulated ischemia, EC5 concentration 2.6 microM
  Cytoprotective effect, % cell survival as compared to vehicle DMSO: 125 ± 6 %
[1]; simulated ischemia, EC10 concentration 6.3 microM
  Cytoprotective effect, % cell survival as compared to vehicle DMSO: 109 ± 2%
[1]; simulated ischemia, EC20 concentration 10.4 microM
  Cytoprotective effect, % cell survival as compared to vehicle DMSO: 106 ± 2%
[1]; simulated ischemia, EC50 concentration 17.7 microM
  Cytoprotective effect, % cell survival as compared to vehicle DMSO: 97 ± 2%
MMP-2; 1 μM, % ± SD, read-out: % inhibition MMP-2 (72 kDa)
  inhibition at 1 µM: 100%
MMP-2; 100 μM, % ± SD, read-out: % inhibition MMP-2 (72 kDa)
  inhibition at 100 µM: 100%
MMP-2; summary in words, MMP1, MMP2, MMP9, MMP13
  selectivity in the inhibition of different MMP isoenzymes: highly selective for MMP2
MMP-2; zymography, Table 8, read-out: IC50 on MMP-2
  IC50: 11.2 µM
